# Source: the NIST ThermoML archive (doi:10.1016/j.jct.2015.07.039)
# Numbers after ± are expanded uncertainties.
# Columns and labels:
# [1] = refractive index (Na D-line) (dimensionless); conditions: 298.15 K; 101.33 kPa; Liquid; Standard Abbe refractometry
# [2] = 298.15 K; 101.33 kPa; Liquid; Vibrating tube method
smiles,measurement,setting,value
CCCCl [1-chloropropane],refractive index,[1],1.38526 ± 0.00032
same,mass density,[2],883.81 ± 0.16 kg/m3
